Test results from patent US12195468B2, “TLR7 agonist for treating colorectal cancer and pharmaceutical combination thereof” (CHIA TAI TIANQING PHARMACEUTICAL GROUP CO., LTD., priority 2018, dated 2025).

System: MC-38 colon cancer
Experiment: Anti-tumor experiment in MC-38 mouse model (subcutaneous xenograft tumor of MC-38 colon cancer in mice)
Format: in vivo
Conditions: for TV (mm^3) on day 0 Mean ± SD: day 0 (baseline at grouping); for TV (mm^3) on day 0 Mean ± SD / TV (mm^3) on day 12 Mean ± SD / TV (mm^3) on day 18 Mean ± SD: female C57BL/6 mice; for TV (mm^3) on day 0 Mean ± SD / TV (mm^3) on day 12 Mean ± SD / TV (mm^3) on day 18 Mean ± SD / TGI (%): i.g., anlotinib 1 mg/kg qd, TLR7 agonist 20 mg/kg tiw, 2 w; for TGI (%): tumor growth inhibition from tumor weight vs control group at end of experiment
Method: In Example 1, the TLR7 agonist is selected from
[drawing 58] and anlotinib is selected fromanlotinib dihydrochloride.
The MC-38 is a colon cancer cell of mouse from Jiangsu Cyto Biotechnology Co., Ltd.
Subcutaneously grafted tumor cells of MC-38 colon cancer (concentration: 2×10^6/mL×0.2 mL/mouse) were inoculated into female C57BL/6 mice at the right side armpit (the site to be inoculated was shaved before inoculating) in a sterile environment, and passaged using a block insertion method. The C57BL/6 mice were 16-18 g in weight, and the breeding environment was SPF level. The diameter of the C57BL/6 xenograft tumor was measured using a vernier caliper, and the mice were randomized into 4 groups when the tumors grew to 100-300 mm^3 (12 mice for control group and 6 mice each for other groups): • i. Control group (blank control); • ii. Monotherapy group: anlotinib, with normal saline as vehicle; • iii. Monotherapy group: TLR7 agonist, with ethanol+tween 80+normal saline (v:v:v=5:5:90) as vehicle; • iv.
The administration method of the combination therapy group is consistent with that of the monotherapy group.
Weights and diameter of the tumor were measured every three days, and the behavior of mice was observed daily. After the experiment was completed, the tumors were removed, weighed and photographed.
The tumor volume and the tumor growth inhibition were calculated using the following formulas: Tumor volume (TV)=(L×W^2)/2.
The TGI (%), as a value of efficacy, was substituted into the Jin zhengjun's formula q=Eab/(Ea+Eb−Ea×Eb), where Ea and Eb represent the efficacy of medicaments used alone, and Eab represents the efficacy of combined use.

Structure (SMILES)	TV (mm^3) on day 0 Mean ± SD [mm^3]	TV (mm^3) on day 12 Mean ± SD [mm^3]	TV (mm^3) on day 18 Mean ± SD [mm^3]	TGI (%)	effect on growth of MC-38 tumor (in words) (summary of Table 2)
COc1cc2c(Oc3ccc4[nH]c(C)cc4c3F)ccnc2cc1OCC1(N)CC1 [anlotinib, 1-[[[4-(4-fluoro-2-methyl-1H-indol-5-yl)oxy-6-methoxyquinolin-7-yl]oxy]methyl]cyclopropylamine, reference compound]	143.28 ± 45.46	427.30 ± 135.63	900.32 ± 346.06	33	
CCCCOc1nc(N)c2[nH]cc(Cc3ccc(CN4CCCC4)cc3)c2n1 [TLR7 agonist]	143.93 ± 47.74	427.88 ± 161.31	747.63 ± 347.13	39	can inhibit the growth of MC-38 tumor
